Some test systems named below: ACHN renal; CAKI-1 renal; HS 578T breast; HT29 colon; MDA-MB-435; NCI-H23 lung; OVCAR-3 ovarian; SF-295 CNS; SK-MEL-2 melanoma; SK-MEL-5 melanoma; SNB-19 CNS; SNB-75 CNS; U251 CNS; UO-31 renal; HCC-2998 colon; HL-60(TB) leukemia; LOX IMVI melanoma.
What all share (assay): inhibition of tumour cell growth, NCI panel, 48 h

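How tested: cells in 96-well plates exposed to compound for 48 hours at five concentrations. TGI denotes the concentration required for complete inhibition of growth.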 Where only a bound is given, the exact number is not on record here.

Consider `COc1cc(C2=NNC(=O)c3ccccc3N2c2nc(-c3cccs3)nc3ccc(Br)cc23)cc(OC)c1OC`, for which the TGI is 63.3 µM in the experiment with ACHN renal; 73.1 µM in the experiment with CAKI-1 renal; 44.1 µM in the experiment with HS 578T breast; 35.9 µM with HT29 colon; 68.5 µM in the experiment with MDA-MB-435; 53.4 µM in the experiment on NCI-H23 lung. For the same compound, the TGI is 27.8 µM in the experiment on OVCAR-3 ovarian; 31.7 µM in the experiment on SF-295 CNS; above 100 µM in the experiment on SK-MEL-2 melanoma; 50.4 µM in the experiment on SK-MEL-5 melanoma; above 100 µM with SNB-19 CNS; above 100 µM in the experiment with SNB-75 CNS. For the same compound, the TGI was 92.9 µM in the experiment on U251 CNS and above 100 µM with UO-31 renal.
With `CCC/C=C1\CCC(CN(C)C)C1=O` (stereo not given), the TGI amounted to 11.2 µM in the experiment on ACHN renal; 4.59 µM in the experiment with CAKI-1 renal; 29.5 µM in the experiment on HCC-2998 colon; 31.5 µM with HL-60(TB) leukemia; 17.9 µM in the experiment with HT29 colon; 20.8 µM in the experiment on LOX IMVI melanoma. Besides, the TGI is 32.8 µM in the experiment on NCI-H23 lung; 12.3 µM in the experiment with OVCAR-3 ovarian; above 55.3 µM with SF-295 CNS; 29.7 µM with SK-MEL-2 melanoma; 32.3 µM in the experiment with SK-MEL-5 melanoma; above 67 µM with SNB-19 CNS. For the same compound, the TGI with SNB-75 CNS stood at 32.9 µM; in the experiment on U251 CNS, 15.6 µM; in the experiment with UO-31 renal, 26.6 µM.
`Cc1c(CCO)c(=O)n2c([nH]c3ccccc32)c1C#N`: the TGI in the experiment on ACHN renal, in the experiment on CAKI-1 renal, with HCC-2998 colon, in the experiment with HT29 colon, in the experiment with LOX IMVI melanoma and in the experiment with NCI-H23 lung was above 100 µM each time. In addition, the TGI in the experiment with OVCAR-3 ovarian is above 100 µM; in the experiment on SF-295 CNS, above 100 µM; with SK-MEL-2 melanoma, above 100 µM; with SK-MEL-5 melanoma it was above 100 µM; in the experiment on SNB-19 CNS it was 91.8 µM; in the experiment with SNB-75 CNS, above 100 µM. Also, the TGI in the experiment with U251 CNS and in the experiment on UO-31 renal was above 100 µM each time.
As for `O=C(O)C[C@@H]1[C@@H](O)[C@@H](O)CN2C(=O)c3ccccc3[C@H]12`, the TGI in the experiment with ACHN renal, in the experiment on CAKI-1 renal, with HCC-2998 colon, with HT29 colon, with LOX IMVI melanoma and in the experiment with MDA-MB-435 was above 100 µM in each case. Further, the TGI in the experiment with NCI-H23 lung, in the experiment with SF-295 CNS, in the experiment with SK-MEL-2 melanoma, in the experiment with SK-MEL-5 melanoma, with SNB-19 CNS and with SNB-75 CNS was above 100 µM each time. In addition, the TGI in the experiment with U251 CNS and in the experiment on UO-31 renal was above 100 µM throughout.
Regarding `CCOC(=O)c1nc2ccccc2nc1Oc1ccc(C(=O)OC)cc1`, the TGI with ACHN renal, in the experiment on CAKI-1 renal, in the experiment with HS 578T breast, with HT29 colon, with LOX IMVI melanoma and in the experiment on MDA-MB-435 was above 100 µM throughout. Moreover, the TGI in the experiment on OVCAR-3 ovarian, with SF-295 CNS, in the experiment on SK-MEL-2 melanoma, in the experiment with SK-MEL-5 melanoma, in the experiment on SNB-19 CNS and in the experiment on SNB-75 CNS was above 100 µM in each case. Further, the TGI with U251 CNS and in the experiment on UO-31 renal was above 100 µM each time.
Regarding `CN(C)c1ccc(C=C2C(=O)N(c3ccccc3)N(c3ccccc3)C2=O)cc1`, the TGI in the experiment with ACHN renal, with HS 578T breast, in the experiment on HT29 colon, with LOX IMVI melanoma, with MDA-MB-435 and in the experiment with NCI-H23 lung was above 100 µM in each case. The TGI in the experiment on OVCAR-3 ovarian, in the experiment with SF-295 CNS, in the experiment with SK-MEL-2 melanoma, with SK-MEL-5 melanoma, with SNB-19 CNS and in the experiment on SNB-75 CNS was above 100 µM throughout. In addition, the TGI with U251 CNS and in the experiment with UO-31 renal was above 100 µM throughout.
Take `O=C1c2ccccc2C(=O)c2c(O)c(NCCCNCCO)cc(O)c21`: the TGI in the experiment on ACHN renal was determined as 15.9 µM; in the experiment on CAKI-1 renal, 22.4 µM; with HCC-2998 colon, 17 µM; with HL-60(TB) leukemia it was 19.7 µM; in the experiment with HT29 colon it was 18.7 µM; in the experiment on NCI-H23 lung it was 24.6 µM. The TGI with OVCAR-3 ovarian came to 26.6 µM; in the experiment on SF-295 CNS, 23.1 µM; with SK-MEL-2 melanoma, 33 µM; with SNB-75 CNS it was 26.8 µM; in the experiment with U251 CNS it was 21.1 µM; in the experiment on UO-31 renal it was 19.5 µM.
On to `Cc1nc2c(o1)C(=Nc1ccccc1)c1ccccc1C2=O`, for which the TGI with ACHN renal turned out to be 19.6 µM; in the experiment with CAKI-1 renal, 36.7 µM; with HCC-2998 colon it was 32.9 µM; in the experiment with HL-60(TB) leukemia, 66.1 µM; in the experiment with HT29 colon, 35.9 µM; in the experiment with LOX IMVI melanoma, 12.1 µM. The TGI in the experiment on NCI-H23 lung came out at 5.25 µM; in the experiment on OVCAR-3 ovarian it was 6.21 µM; in the experiment with SF-295 CNS it was 30.8 µM; in the experiment with SK-MEL-2 melanoma it was 18.9 µM; with SK-MEL-5 melanoma, 5.78 µM; with SNB-19 CNS, 23.7 µM. Also, the TGI in the experiment with SNB-75 CNS is 23.6 µM; in the experiment with U251 CNS it was 9.4 µM; in the experiment with UO-31 renal, 20.6 µM.
Consider `CN(CCO)CCCC1COc2ccccc2O1` (stereo not given), for which the TGI in the experiment with ACHN renal, with CAKI-1 renal, with HCC-2998 colon, in the experiment on HL-60(TB) leukemia, in the experiment with HT29 colon and with NCI-H23 lung was above 100 µM throughout. Further, the TGI in the experiment with OVCAR-3 ovarian, with SF-295 CNS, with SK-MEL-5 melanoma, in the experiment with SNB-19 CNS, with SNB-75 CNS and in the experiment on U251 CNS was above 100 µM in each case. The compound also registered a TGI in the experiment on UO-31 renal above 100 µM.
As to `O=c1[nH]c2ccccc2c(O)c1/C=N/C(=S)NCc1ccccc1`, the TGI in the experiment on ACHN renal, in the experiment on CAKI-1 renal, with HL-60(TB) leukemia, in the experiment on HT29 colon, in the experiment with LOX IMVI melanoma and in the experiment with MDA-MB-435 was above 100 µM in each case. Besides, the TGI with NCI-H23 lung, in the experiment with OVCAR-3 ovarian, with SF-295 CNS, with SK-MEL-2 melanoma, in the experiment with SK-MEL-5 melanoma and in the experiment on SNB-19 CNS was above 100 µM each time. In addition, the TGI with SNB-75 CNS, with U251 CNS and in the experiment with UO-31 renal was above 100 µM in each case.

For the origin of these results see PubChem BioAssay (NCI).
